Earlier results as cited in patent US20080069870A1, “Controlled Release Compositions Comprising a Cephalosporin for the Treatment of a Bacterial Infection” (Elan Corporation Pic, priority 2005, published 2008).
Like-named read-outs stand apart in the source and are kept apart here.

Assays:
[1] = oral administration, after meals vs before meals

solubility (in N, N-dimethylformamide): freely soluble
solubility (in diethyl ether): practically insoluble
solubility (in ethanol): sparingly soluble
solubility (in methanol): freely soluble
solubility (in water): only slightly soluble
absorption [1]: better after meals than before meals
SMILES: CC/C=C(\C(=O)N[C@@H]1C(=O)N2C(C(=O)OCOC(=O)C(C)(C)C)=C(COC(N)=O)CS[C@H]12)c1csc(N)n1.Cl [CFPN-PI, 2,2-Dimethylpropanoyloxymethyl (6R, 7R)-7-[(Z)-2-(2-aminothiazol-4-yl)pent-2-enylamino]-3-carabmoyloxymethyl-8-oxo-5-thia-1-azabicyclo[4.2.0]oct-2-ene-2-carboxylate monohydrochoride monohydrate]
